26 compounds from PubChem BioAssay (NCI) can be followed below.

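Tested at 5 concentrations; 48 h exposure; 96-well plates; endpoints linearly interpolated, else capped at highest concentration. GI50 = concentration required for 50% inhibition of growth. TGI marks complete inhibition of growth.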

Some test systems named below: K-562 leukemia; HOP-92 NSCLC; EKVX NSCLC; A498 renal; OVCAR-5 ovarian; A549 NSCLC; MCF7 breast; DU-145 prostate; PC-3 prostate; HS 578T breast.
Experiment in all cases: DTP human tumour cell line panel, 48 h

A word on the TGI: it is the concentration at which net growth stops. Consider `O=C(NC(=Nc1ccccc1)SCSC(=Nc1ccccc1)NC(=O)c1ccco1)c1ccco1`, for which the TGI is > 100 µM in the assay with K-562 leukemia; 53.7 µM with HOP-92 NSCLC; > 100 µM in the assay with EKVX NSCLC; 98.2 µM with A498 renal; > 100 µM with OVCAR-5 ovarian; > 100 µM in the assay on A549 NSCLC.
With `CCc1ccccc1NC(=O)C(=O)C(C#N)c1ccccc1Cl` (stereo unspecified), the TGI with HOP-92 NSCLC, in the assay on EKVX NSCLC, in the assay on A498 renal, in the assay with OVCAR-5 ovarian and with A549 NSCLC was > 100 µM each time.
Take `O=C1C=C(Nc2ccccc2C(=O)CC(=O)C(=O)Nc2ccc(Cl)cc2)c2ccccc2C1=O`: the TGI in the assay with K-562 leukemia was 40.9 µM; in the assay with HOP-92 NSCLC, > 100 µM; with EKVX NSCLC, 99 µM; with A498 renal it was > 100 µM; with OVCAR-5 ovarian, 35.6 µM; in the assay with A549 NSCLC, 32.4 µM.
As for `O=C(COc1ccccc1Cl)N1N=C(c2ccccc2)CC1(O)c1ccccc1` (stereo unspecified), the TGI in the assay with K-562 leukemia turned out to be 54.9 µM; with HOP-92 NSCLC it was 42.3 µM; in the assay with OVCAR-5 ovarian, 33.5 µM; in the assay with A549 NSCLC, 44.4 µM.
Regarding `COc1ccc(Nc2nc3cc(C(F)(F)F)ccc3nc2-c2ccccc2)cc1OC`, the TGI with K-562 leukemia was > 100 µM; with HOP-92 NSCLC, 9.1 µM; in the assay with EKVX NSCLC, 71.2 µM; in the assay on A498 renal it was > 100 µM; in the assay on OVCAR-5 ovarian, > 100 µM; in the assay with A549 NSCLC, > 100 µM.
Regarding `c1ccc2c(c1)SC(=C1Sc3ccccc3S1)S2`, the TGI with K-562 leukemia, in the assay on HOP-92 NSCLC, with EKVX NSCLC and in the assay on A549 NSCLC was > 100 µM each time.
As for `OCC1OC2c3ccccc3COC2C1OCc1ccccc1` (stereo unspecified), the TGI in the assay on K-562 leukemia, in the assay on EKVX NSCLC, in the assay on OVCAR-5 ovarian and with A549 NSCLC was > 100 µM throughout.
The GI50 is the concentration that inhibits growth by half. In the case of `O=C1C(=c2ccc(=C3C(=O)c4ccc([N+](=O)[O-])cc4[N+]3=O)cc2)N([O-])c2cc([N+](=O)[O-])ccc21`, the GI50 in the assay on K-562 leukemia, with HOP-92 NSCLC, in the assay on EKVX NSCLC, in the assay with A498 renal, in the assay with OVCAR-5 ovarian and in the assay with A549 NSCLC was > 100 µM in each case. The TGI with K-562 leukemia, in the assay on HOP-92 NSCLC, in the assay on EKVX NSCLC, in the assay with A498 renal, in the assay on OVCAR-5 ovarian and in the assay with A549 NSCLC was > 100 µM each time.
For `O=C(/C=C/C12c3ccccc3C(c3ccccc31)C1C(=O)N(c3ccc(Cl)cc3)C(=O)C12)c1ccccn1` (stereo unspecified), the GI50 with K-562 leukemia was 0.267 µM; with MCF7 breast it was 0.313 µM; with HOP-92 NSCLC it was 0.452 µM; with EKVX NSCLC, 0.381 µM; with DU-145 prostate it was 0.283 µM; in the assay on A498 renal it was 0.277 µM. In addition, the GI50 with PC-3 prostate is 0.331 µM; with OVCAR-5 ovarian, 0.309 µM; with A549 NSCLC, 0.288 µM. In addition, the concentration for total growth inhibition (TGI) was > 100 µM with K-562 leukemia; > 23 µM in the assay on MCF7 breast; 1.11 µM in the assay on HOP-92 NSCLC; 2.38 µM with EKVX NSCLC; 0.747 µM in the assay with DU-145 prostate; 0.792 µM with A498 renal. Also, the TGI in the assay on PC-3 prostate amounted to 1.87 µM; in the assay with OVCAR-5 ovarian it was 1.14 µM; with A549 NSCLC, 0.989 µM.
Regarding `[O-]/N=[N+](/[O-])C1CCCCC1=[N+]1CCOCC1` (stereo unspecified), the TGI with K-562 leukemia, in the assay on HOP-92 NSCLC, in the assay with EKVX NSCLC, in the assay on A498 renal, with OVCAR-5 ovarian and in the assay on A549 NSCLC was > 100 µM in each case.
For the compound `COc1cccc(C=O)c1C(=O)c1cc(O)ccc1O`, the concentration for total growth inhibition (TGI) in the assay with HOP-92 NSCLC is 33.1 µM; with EKVX NSCLC, 37.9 µM; with A498 renal it was > 63.7 µM; in the assay on OVCAR-5 ovarian, > 100 µM; in the assay with A549 NSCLC, > 100 µM.
Turning to `Cc1cc(=O)[nH]c(CNC(=O)c2ccc3ccccc3c2)n1`, the TGI in the assay with K-562 leukemia, in the assay with HOP-92 NSCLC, in the assay on EKVX NSCLC, in the assay with A498 renal, in the assay on OVCAR-5 ovarian and in the assay on A549 NSCLC was > 100 µM in each case.
As for `O=[N+]([O-])c1cc(-c2nc(=S)[nH][nH]2)ccc1O`, the TGI in the assay with K-562 leukemia, in the assay with EKVX NSCLC, in the assay with A498 renal, with OVCAR-5 ovarian and in the assay with A549 NSCLC was > 100 µM throughout.
`COC(=O)c1cc(NC(=O)c2cc(NC(=O)c3cc([N+](=O)[O-])n(C)c3)cn2C)cn1C`: the GI50 in the assay on HS 578T breast is > 100 µM; in the assay with K-562 leukemia it was > 100 µM; in the assay with MCF7 breast, > 100 µM; with HOP-92 NSCLC, 13.2 µM; in the assay on EKVX NSCLC, > 100 µM; in the assay with A498 renal it was 84 µM. Also, the values for the GI50 in the assay with PC-3 prostate, in the assay with OVCAR-5 ovarian and in the assay on A549 NSCLC were > 100 µM, 30.9 µM and 64.1 µM, respectively. Also, the TGI in the assay with HS 578T breast was > 100 µM; with K-562 leukemia it was > 100 µM; in the assay on MCF7 breast, > 100 µM; with HOP-92 NSCLC it was 85.2 µM; with EKVX NSCLC, > 100 µM; in the assay on A498 renal it was > 100 µM. In addition, the total growth inhibition concentration (TGI) in the assay with PC-3 prostate, with OVCAR-5 ovarian and in the assay with A549 NSCLC was > 100 µM each time.
With `COc1ccc2c(c1)[n+]([O-])c(-c1cccc(Cl)c1)c(N)[n+]2[O-]`, the TGI in the assay on K-562 leukemia, in the assay on HOP-92 NSCLC, in the assay on EKVX NSCLC, in the assay on A498 renal, in the assay with OVCAR-5 ovarian and with A549 NSCLC was > 100 µM in each case.
For `O=C(O)CN(c1ccccc1)S(=O)(=O)c1cccc([N+](=O)[O-])c1`, the concentration for total growth inhibition (TGI) with K-562 leukemia, with HOP-92 NSCLC, with EKVX NSCLC, in the assay with A498 renal, with OVCAR-5 ovarian and in the assay with A549 NSCLC was > 100 µM in each case.
With `COc1cc2c3c(n(CCCN(CCCN(CCCn4c5c(c6ccccc6c4=O)C(=O)c4ccccc4-5)C(=O)OC(C)(C)C)C(=O)OC(C)(C)C)c(=O)c2cc1OC)-c1cc2c(cc1C3=O)OCO2`, the GI50 in the assay on K-562 leukemia is > 100 µM; with HOP-92 NSCLC, > 100 µM; in the assay with EKVX NSCLC it was 11.8 µM; with PC-3 prostate it was > 100 µM; with A549 NSCLC, > 100 µM. The TGI is > 100 µM in the assay on K-562 leukemia; > 100 µM with HOP-92 NSCLC; 34 µM with EKVX NSCLC; > 100 µM in the assay with PC-3 prostate; > 100 µM in the assay on A549 NSCLC.
For `O=C(C=Nc1ccccc1C(=O)[O-])c1cccs1.O=C(C=Nc1ccccc1C(=O)[O-])c1cccs1.[Ni+2]`, the TGI in the assay on K-562 leukemia, in the assay on HOP-92 NSCLC, with A498 renal, with OVCAR-5 ovarian and with A549 NSCLC was > 100 µM each time.
As to `COC(=O)C1CSC(c2csc(CCN)n2)=N1` (stereo unspecified), the TGI in the assay on K-562 leukemia, in the assay on HOP-92 NSCLC, in the assay on EKVX NSCLC, with OVCAR-5 ovarian and with A549 NSCLC was > 100 µM in each case.
Consider `CC(=O)c1ccccc1NC(=O)C(=O)C(C(=O)c1ccc2ccccc2c1)C1OC(=O)c2ccccc21` (stereo unspecified), for which the TGI was 70.3 µM with K-562 leukemia; 41.1 µM in the assay with HOP-92 NSCLC; > 100 µM with EKVX NSCLC; 43.9 µM in the assay with A498 renal; 52.9 µM in the assay with OVCAR-5 ovarian; 70.5 µM with A549 NSCLC.
Turning to `CN1C(=O)CC2(C)c3cc(O)cc(Br)c3N(C)C12` (stereo unspecified), the TGI in the assay on K-562 leukemia, in the assay on HOP-92 NSCLC, with EKVX NSCLC, in the assay on A498 renal, in the assay on OVCAR-5 ovarian and with A549 NSCLC was > 100 µM in each case.
For the compound `Nc1nc(N)c(CCCCc2ccccc2)c(C=O)n1`, the TGI in the assay on K-562 leukemia is 24.3 µM; with EKVX NSCLC, 46.4 µM; in the assay on A498 renal, > 100 µM; with OVCAR-5 ovarian, > 100 µM; with A549 NSCLC it was > 100 µM.
In the case of `NC1N=Nc2ccccc21` (stereo unspecified), the TGI in the assay with K-562 leukemia, in the assay on HOP-92 NSCLC, in the assay with EKVX NSCLC, in the assay with OVCAR-5 ovarian and with A549 NSCLC was > 100 µM each time.
Take `COC(=O)[C@H](CC(C)C)NC(=O)[C@H](Cc1ccccc1)N1CC2C=CC1C2` (stereo partly specified): the TGI in the assay on K-562 leukemia, in the assay with HOP-92 NSCLC, in the assay with EKVX NSCLC, in the assay with A498 renal, in the assay with OVCAR-5 ovarian and in the assay on A549 NSCLC was > 100 µM throughout.
As for `COC(=O)Cc1c([C@@]2(C)CCCC(C)(C)C2)ccc2c1C(=O)OC2`, the TGI turned out to be 19.4 µM with K-562 leukemia; 8.38 µM in the assay on HOP-92 NSCLC; 59.7 µM in the assay on EKVX NSCLC; 41.8 µM with A498 renal; 32.4 µM in the assay with A549 NSCLC.
`CC1(C)NC(=O)N(CCCCCCN2C(=O)NC(C)(C)C2=O)C1=O`: the TGI in the assay with K-562 leukemia, in the assay with HOP-92 NSCLC, in the assay with EKVX NSCLC, in the assay with A498 renal, in the assay with OVCAR-5 ovarian and in the assay on A549 NSCLC was > 100 µM throughout.
